Reference: article PMC3914206

How the values were obtained:
Format in all cases: binding
panel of 442 kinases [1] = molecular target: T1, panel of 442 kinases (Homo sapiens, UniProt Q96BR1); settings: kinase SGK3; compound concentration 10 µM
T1 construct: purchased KINOMEscan
T1 sequence (Q96BR1 1-496): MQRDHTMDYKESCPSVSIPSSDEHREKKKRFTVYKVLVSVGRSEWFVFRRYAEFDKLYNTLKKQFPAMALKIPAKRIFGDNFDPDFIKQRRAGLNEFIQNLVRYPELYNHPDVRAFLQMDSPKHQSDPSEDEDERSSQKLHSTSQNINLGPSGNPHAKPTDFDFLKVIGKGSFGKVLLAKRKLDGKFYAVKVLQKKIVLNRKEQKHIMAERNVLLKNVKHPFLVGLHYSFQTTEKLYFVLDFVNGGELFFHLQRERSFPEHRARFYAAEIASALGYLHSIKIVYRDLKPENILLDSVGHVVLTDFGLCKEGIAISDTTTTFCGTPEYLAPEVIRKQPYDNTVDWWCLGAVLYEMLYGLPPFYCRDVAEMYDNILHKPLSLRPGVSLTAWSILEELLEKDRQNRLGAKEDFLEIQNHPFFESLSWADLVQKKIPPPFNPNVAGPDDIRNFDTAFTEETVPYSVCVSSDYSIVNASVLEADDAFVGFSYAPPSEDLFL
Description: (§1) We assessed the selectivity of members of this scaffold using the KINOMEscan methodology across a near comprehensive panel of 442 kinases [[18,27]].

panel of 442 kinases [2] = molecular target: T2, panel of 442 kinases (Homo sapiens, UniProt Q16566); settings: Compound Concentration 10 µM
T2 construct: purchased KINOMEscan
T2 sequence (Q16566 1-473): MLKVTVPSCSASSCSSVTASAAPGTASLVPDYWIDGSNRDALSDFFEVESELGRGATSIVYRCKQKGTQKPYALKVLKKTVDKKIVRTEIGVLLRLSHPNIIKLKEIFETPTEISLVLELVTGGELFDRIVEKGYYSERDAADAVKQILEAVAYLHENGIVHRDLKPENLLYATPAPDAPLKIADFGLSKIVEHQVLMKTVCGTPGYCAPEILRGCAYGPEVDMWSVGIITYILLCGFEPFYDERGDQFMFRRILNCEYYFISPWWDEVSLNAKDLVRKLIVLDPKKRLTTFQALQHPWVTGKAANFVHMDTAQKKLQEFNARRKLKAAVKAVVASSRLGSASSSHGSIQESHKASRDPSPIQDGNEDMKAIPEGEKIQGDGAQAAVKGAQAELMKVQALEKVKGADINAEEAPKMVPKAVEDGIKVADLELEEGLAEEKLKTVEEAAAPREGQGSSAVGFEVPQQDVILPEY
Description: as §1

panel of 442 kinases [3] = molecular target: T3, panel of 442 kinases (Homo sapiens, UniProt P19525); settings: Compound Concentration 10 µM
T3 construct: purchased KINOMEscan
Description: as §1

T3 sequence (P19525 whole entry): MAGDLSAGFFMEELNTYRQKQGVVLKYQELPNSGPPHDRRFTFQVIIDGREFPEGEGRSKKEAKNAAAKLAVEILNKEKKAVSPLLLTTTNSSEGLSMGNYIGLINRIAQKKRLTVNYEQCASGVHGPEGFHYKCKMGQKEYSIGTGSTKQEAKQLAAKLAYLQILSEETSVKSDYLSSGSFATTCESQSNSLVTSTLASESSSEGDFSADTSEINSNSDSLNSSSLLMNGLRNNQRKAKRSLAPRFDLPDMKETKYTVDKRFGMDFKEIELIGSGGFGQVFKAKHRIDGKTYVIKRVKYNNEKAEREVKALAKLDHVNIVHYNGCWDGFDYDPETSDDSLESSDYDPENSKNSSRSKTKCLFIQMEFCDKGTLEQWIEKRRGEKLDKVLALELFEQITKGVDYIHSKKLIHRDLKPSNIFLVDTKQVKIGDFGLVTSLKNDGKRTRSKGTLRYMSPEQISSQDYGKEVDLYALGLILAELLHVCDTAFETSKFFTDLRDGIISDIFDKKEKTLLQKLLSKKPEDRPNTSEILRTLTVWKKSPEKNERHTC

Row | SMILES | % Ctrl, SGK3 (panel of 442 kinases [1]) | KINOMEscan: CAMK4 (panel of 442 kinases [2]) | KINOMEscan: PRKR (panel of 442 kinases [3])
1 | COc1cc(C(=O)N2CCC(N3CCN(C)CC3)CC2)ccc1Nc1ncc2c(n1)N(C)c1ccccc1C(=O)N2C [15 (LRRK2-IN-1)] | 95 % Ctrl | 79 | 84
2 | CCOc1cc(C(=O)N2CCC(N3CCN(C)CC3)CC2)ccc1Nc1ncc2c(n1)N(C1CCCC1)c1ccccc1C(=O)N2C [Compound 26] | 83 % Ctrl | 100 | 97
3 | COc1cc(C(=O)N2CCC(N3CCN(C)CC3)CC2)ccc1Nc1ncc2c(n1)N1CCc3cccc(c31)C(=O)N2C [Compound 24] | 100 % Ctrl |  | 33
4 | COc1cc(C(=O)N2CCC(N3CCN(C)CC3)CC2)ccc1Nc1ncc2c(n1)N(C1CCCC1)c1ccccc1C(=O)N2C [Compound 25, 11-cyclopentyl-2-((2-methoxy-4-(4-(4-methylpiperazin-1-yl)piperidine-1-carbonyl)phenyl)amino)-5-methyl-5H-benzo[e]pyrimido[5,4-b][1,4]diazepin-6(11H)-one] | 100 % Ctrl | 82 | 71
